Laboratory results from PubChem BioAssay AID330 (DTP/NCI, 2004).
Several values for one entry are separate records, joined by “and”; a condition that tells them apart may be missing. Equal entries are not always repeated. Toxic doses and inconclusive results are not listed.

Tested on: P388 leukemia ip, CD2F1 mice, survival T/C
Experiment: NCI In Vivo Anticancer Drug Screen. Data for tumor model P388 Leukemia (intraperitoneal) in CD2F1 (CDF1) mice
Conditions: endpoint: median survival time, higher = longer survival
Method: The antitumor activity of compounds was measured in mice bearing transplantable tumors. Survival or tumor size were measured and the results are expressed as the measurement made in the treated group (T) divided by the measurement made in the vehicle treated control group (C). The tumor model used in this assay is P388 Leukemia (intraperitoneal) in CD2F1 (CDF1) mice

[1] = dose: 6.25 mg/kg/injection, schedule: Q01DX009 (ip), vehicle: saline with Tween-80
[2] = dose: 12.5 mg/kg/injection, schedule: Q01DX009 (ip), vehicle: saline with Tween-80
[3] = dose: 25.0 mg/kg/injection, schedule: Q01DX009 (ip), vehicle: saline with Tween-80
[4] = dose: 50.0 mg/kg/injection, schedule: Q01DX009 (ip), vehicle: saline with Tween-80
[5] = dose: 50.0 mg/kg/injection, schedule: Q01DX009 (ip), vehicle: Klucel (hydroxypropylcellulose) (HPC)
[6] = dose: 100.0 mg/kg/injection, schedule: Q01DX009 (ip), vehicle: Klucel (hydroxypropylcellulose) (HPC)
[7] = dose: 200.0 mg/kg/injection, schedule: Q01DX009 (ip), vehicle: Klucel (hydroxypropylcellulose) (HPC)
[8] = dose: 50.0 mg/kg/injection, schedule: Q01DX009 (ip), vehicle: saline
[9] = dose: 100.0 mg/kg/injection, schedule: Q01DX009 (ip), vehicle: saline
[10] = dose: 200.0 mg/kg/injection, schedule: Q01DX009 (ip), vehicle: saline
[11] = dose: 100.0 mg/kg/injection, schedule: Q01DX009 (ip), vehicle: saline with Tween-80
[12] = dose: 200.0 mg/kg/injection, schedule: Q01DX009 (ip), vehicle: saline with Tween-80
[13] = dose: 60.0 mg/kg/injection, schedule: Q01DX005 (ip), vehicle: saline with Tween-80
[14] = dose: 120.0 mg/kg/injection, schedule: Q01DX005 (ip), vehicle: saline with Tween-80
[15] = dose: 240.0 mg/kg/injection, schedule: Q01DX005 (ip), vehicle: saline with Tween-80
[16] = dose: 50.0 mg/kg/injection, schedule: Q01DX005 (ip), vehicle: Klucel (hydroxypropylcellulose) (HPC)
[17] = dose: 100.0 mg/kg/injection, schedule: Q01DX005 (ip), vehicle: Klucel (hydroxypropylcellulose) (HPC)
[18] = dose: 200.0 mg/kg/injection, schedule: Q01DX005 (ip), vehicle: Klucel (hydroxypropylcellulose) (HPC)

COc1ccc(N=Nc2c(O)n(-c3ccccc3Cl)c(=S)n(-c3ccc(C)cc3)c2=O)cc1
T/C (dose: 100.0 mg/kg/injection, schedule: Q01DX001 (ip), vehicle: Klucel (hydroxypropylcellulose) (HPC)): 105 % of control | T/C (dose: 200.0 mg/kg/injection, schedule: Q01DX001 (ip), vehicle: Klucel (hydroxypropylcellulose) (HPC)): 97 % of control | T/C (dose: 400.0 mg/kg/injection, schedule: Q01DX001 (ip), vehicle: Klucel (hydroxypropylcellulose) (HPC)): 102 % of control

O=C(NC1CCCCC1)ON1C(=O)C2C3C=CC(C3)C2C1=O (stereo unspecified)
T/C (dose: 3.12 mg/kg/injection, schedule: Q01DX009 (ip), vehicle: saline with Tween-80): 101 % of control and 98 % of control | T/C [1]: 106 % of control and 110 % of control and 113 % of control | T/C [2]: 106 % of control and 110 % of control | T/C [3]: 113 % of control and 117 % of control and 98 % of control | T/C [4]: 119 % of control

CC1=CCC(C(C)C2CCC3(C)C4=C(C=C5C=CC(=O)OC(C)(C)C5CC4)CCC23C)OC1=O (stereo unspecified)
T/C (dose: 12.5 mg/kg/injection, schedule: Q01DX005 (ip), vehicle: other): 108 % of control | T/C (dose: 25.0 mg/kg/injection, schedule: Q01DX005 (ip), vehicle: other): 100 % of control | T/C (dose: 50.0 mg/kg/injection, schedule: Q01DX005 (ip), vehicle: other): 93 % of control | T/C (dose: 100.0 mg/kg/injection, schedule: Q01DX005 (ip), vehicle: other): 91 % of control

O=c1[nH]c2ccccc2c(=O)n1CCCCCCN1CCN(c2cccc(Cl)c2)CC1
T/C [5]: 96 % of control | T/C [6]: 105 % of control | T/C [7]: 100 % of control

Cn1c([N+](=O)[O-])cnc1/C=[N+](\[O-])CCO
T/C [8]: 100 % of control | T/C [9]: 100 % of control | T/C [10]: 102 % of control

CCc1ccc(C2=C(O)C(=O)C(c3ccc(CC)cc3)=C(O)C2=O)cc1
T/C [1]: 100 % of control | T/C [2]: 110 % of control | T/C (dose: 33.0 mg/kg/injection, schedule: Q01DX009 (ip), vehicle: saline with Tween-80): 163 % of control

O=C(N1CCC(CCCC2CCN(C(=O)C(F)(F)C(F)(F)C(F)(F)C(F)(F)C(F)(F)C(F)(F)C(F)(F)F)CC2)CC1)C(F)(F)C(F)(F)C(F)(F)C(F)(F)C(F)(F)C(F)(F)C(F)(F)F
T/C [8]: 98 % of control | T/C [9]: 96 % of control | T/C [10]: 95 % of control

COc1ccc([N+](=O)[O-])cc1NC(=O)N(C)Cc1ccco1
T/C [4]: 103 % of control | T/C [11]: 109 % of control | T/C [12]: 106 % of control

CN1CCc2c1c1c(c3c4ccccc4n(C)c23)N(C)CC1
T/C (dose: 6.25 mg/kg/injection, schedule: Q01DX005 (ip), vehicle: Klucel (hydroxypropylcellulose) (HPC)): 103 % of control | T/C (dose: 12.5 mg/kg/injection, schedule: Q01DX005 (ip), vehicle: Klucel (hydroxypropylcellulose) (HPC)): 104 % of control | T/C (dose: 25.0 mg/kg/injection, schedule: Q01DX005 (ip), vehicle: Klucel (hydroxypropylcellulose) (HPC)): 107 % of control

N/N=C1/C(=O)N(c2cccc([N+](=O)[O-])c2)C(=O)C1C(=O)Nc1cccc([N+](=O)[O-])c1 (stereo unspecified)
T/C (dose: 37.5 mg/kg/injection, schedule: Q01DX005 (ip), vehicle: saline with Tween-80): 101 % of control | T/C (dose: 75.0 mg/kg/injection, schedule: Q01DX005 (ip), vehicle: saline with Tween-80): 100 % of control | T/C (dose: 150.0 mg/kg/injection, schedule: Q01DX005 (ip), vehicle: saline with Tween-80): 105 % of control

COC(=O)c1cc(-c2ccc(O)c(OC)c2)n2c(NC(=O)Nc3ccc(Cl)cc3)nnc2n1
T/C [13]: 91 % of control | T/C [14]: 91 % of control | T/C [15]: 91 % of control

N#CCCN1C(=O)C2(CCC#N)CCCCC2(O)N=C1c1ccccc1 (stereo unspecified)
T/C (dose: 60.0 mg/kg/injection, schedule: Q01DX005 (ip), vehicle: Klucel (hydroxypropylcellulose) (HPC)): 92 % of control | T/C (dose: 120.0 mg/kg/injection, schedule: Q01DX005 (ip), vehicle: Klucel (hydroxypropylcellulose) (HPC)): 94 % of control | T/C (dose: 240.0 mg/kg/injection, schedule: Q01DX005 (ip), vehicle: Klucel (hydroxypropylcellulose) (HPC)): 92 % of control

BrCc1cn(Cc2ccccc2)nn1
T/C [8]: 97 % of control | T/C [9]: 97 % of control

CC(C)(C)NCc1cc(Nc2ccnc3cc(Cl)ccc23)cc(-c2ccc(Cl)cc2)c1O
T/C (dose: 15.0 mg/kg/injection, schedule: Q01DX005 (ip), vehicle: saline with Tween-80): 100 % of control | T/C (dose: 30.0 mg/kg/injection, schedule: Q01DX005 (ip), vehicle: saline with Tween-80): 100 % of control | T/C [13]: 95 % of control and 98 % of control | T/C [14]: 105 % of control | T/C [15]: 97 % of control

CNN(C)P(=S)(Oc1ccccc1)N(C)NC
T/C (dose: 50.0 mg/kg/injection, schedule: Q01DX005 (ip), vehicle: saline with Tween-80): 101 % of control | T/C (dose: 100.0 mg/kg/injection, schedule: Q01DX005 (ip), vehicle: saline with Tween-80): 103 % of control | T/C (dose: 200.0 mg/kg/injection, schedule: Q01DX005 (ip), vehicle: saline with Tween-80): 102 % of control

OC(CC1CCCCN1)c1cc2c(Cl)cc(Cl)cc2c2cc(C(F)(F)F)ccc12 (stereo unspecified)
T/C [2]: 95 % of control | T/C [3]: 104 % of control | T/C [4]: 101 % of control

O=C(Nc1ncc([N+](=O)[O-])s1)c1ccc([N+](=O)[O-])cc1
T/C (dose: 12.5 mg/kg/injection, schedule: Q01DX009 (ip), vehicle: saline): 100 % of control | T/C (dose: 25.0 mg/kg/injection, schedule: Q01DX009 (ip), vehicle: saline): 97 % of control | T/C [8]: 104 % of control

CCOC(=O)NC(NC(=O)OCC)c1ccc(C(NC(=O)OCC)NC(=O)OCC)cc1
T/C (dose: 100.0 mg/kg/injection, schedule: Q04DX003 (ip), vehicle: saline): 99 % of control | T/C (dose: 200.0 mg/kg/injection, schedule: Q04DX003 (ip), vehicle: saline): 90 % of control | T/C (dose: 400.0 mg/kg/injection, schedule: Q04DX003 (ip), vehicle: saline): 89 % of control

c1cc2sc3ccc(OCCCN4CCCCC4)cc3c2cc1OCCCN1CCCCC1
T/C [2]: 104 % of control | T/C [3]: 115 % of control | T/C [4]: 91 % of control

CCCCOCCOS(=O)(=O)c1ccc(C)cc1
T/C [4]: 92 % of control | T/C [11]: 96 % of control | T/C [12]: 106 % of control

O=C1C=C(Nc2ccccc2C(=O)O)C(=O)C=C1Nc1ccccc1C(=O)O
T/C [5]: 107 % of control | T/C [6]: 110 % of control | T/C [7]: 113 % of control

COc1cc(/C=N\NC(=O)C(C)SC(C)C(=O)N/N=C/c2cc(OC)c(OC)c(OC)c2)cc(OC)c1OC (stereo unspecified)
T/C [16]: 93 % of control | T/C [17]: 88 % of control | T/C [18]: 90 % of control

CC(C)(C)OC(=O)NC(Cc1ccc(O)cc1)C(=O)ON1C(=O)CCC1=O (stereo unspecified)
T/C [16]: 100 % of control | T/C [17]: 106 % of control | T/C [18]: 108 % of control

CCN(CC)C(=O)N1C=CC(c2ccccc2)C(C(C)=O)=C1 (stereo unspecified)
T/C [13]: 91 % of control | T/C [14]: 103 % of control | T/C [15]: 101 % of control
